The target of experiment [1] is T1, ligand binding domain of ERR-α (aa 183-424) (Homo sapiens, UniProt P11474).
T1 construct: His tag (N); thrombin cleavage site (N); made in house; host or cells: E. coli BL21(DE3+)
T1 sequence (P11474 183-423 limits assumed): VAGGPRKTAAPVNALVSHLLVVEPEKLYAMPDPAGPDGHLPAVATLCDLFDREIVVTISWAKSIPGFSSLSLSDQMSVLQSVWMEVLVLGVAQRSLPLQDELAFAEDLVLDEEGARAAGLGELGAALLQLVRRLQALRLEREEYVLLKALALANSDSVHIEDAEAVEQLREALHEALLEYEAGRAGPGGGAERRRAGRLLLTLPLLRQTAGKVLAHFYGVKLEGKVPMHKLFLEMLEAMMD
In words: ThermoFluor thermal-shift binding affinity screen against ERR-α ligand binding domain. As to conditions: 100 μM test compound, 0.1 mg/mL ERR-α, pH 7.6, Kd estimated from melting temperature shift at reference temperature, read-out: TF Kd. Here is the method:
The ligand binding domain of ERR-α (aa 183-424) was subcloned in frame with the N-terminal His tag and the cleavable thrombin site in pET28. The protein was expressed in BL21(DE3^+) following induction with 100 μM IPTG at 16° C. Cells were harvested after 16 hours (h) of induction and lysed in 20 mM Tris pH 7.5, 500 mM NaCl, 5 mM imidazole, 5% glycerol, protease inhibitor cocktail (-EDTA) and 2 mM β-ME. Insoluble material was removed by centrifugation at 40,000×g for 1 hr. Clarified homogenate was applied on a Ni-NTA column and after applying an imidazole gradient the protein was eluted. The protein was further purified on size exclusion chromatography to an apparent homogeneity of 95% as judged by SDS-PAGE chromatography.
Binding affinities of compounds were determined by screening against the ligand binding domain of ERR-α using ThermoFluor® technology (U.S. Pat. No. 6,020,141 and U.S. Pat. No. 6,036,920, and Journal of Biomolecular Screening 6 (6), […], pgs 429-440). Assay plates were prepared by dispensing 2 μL of a protein-dye solution and 2 μL of the test compound in a 384-well plate. The conditions used in the screen were: 0.1 mg/mL ERR-α, 25 mM Na-phosphate buffer at pH 7.6, 200 mM NaCl, 10% glycerol, 16 μM ANS, 2% DMSO and the final concentration of test compound was 100 μM. Finally 1 μL of mineral oil was dispensed on top to prevent evaporation during the high throughput screen (HTS). ThermoFluor® is an HTS assay that measures protein unfolding based on fluorescence detection of the denatured form of the protein. The reporter for the protein unfolding event is the environmentally sensitive dye ANS that is incorporated in the screening buffer. During a typical experiment the 384-well plate is heated at a ramping rate of 1° C./min and the thermal unfolding of the protein is monitored at 1° C. intervals by measuring fluorescence changes detected through a CCD camera. Captured images are integrated and a melting curve is generated that relates fluorescence to fraction of unfolded protein as a function of temperature. For the ERR-α screen, data were collected from 30 to 80° C. at 1° C. intervals and the protein melted under the screening conditions with a characteristic melting temperature, Tm, of 52.1° C. Hits were identified from the screen by measuring an increase in the melting temperature of the protein.
In order to estimate binding affinities, it was taken into account that the oligomeric state of ERR-α, which is a dimer (N2), and that of a single ligand (Lf) can interact per monomer subunit with equal affinity. The melting curve for such a system is described by the following three equilibria: [formula] The first equilibrium describes the denaturation of ERR-α dimers; the second equilibrium describes the dissociation of the first ligand from the single ligand occupied ERR-α dimers (N2L); and the third equilibrium describes the dissociation of the second ligand from the fully occupied ERR-α dimers (N2L2).
Following the derivations of Brandts and Lin (Biochemistry, 29, 6967, 1990) the dissociation constants for the ligands (Kd1^t^m) can be determined at T=Tm for any ligand concentration Lt by solving numerically the conservation of mass equations: [formula] and Ku is in the unfolding equilibrium constant for ERR-α dimers that is calculated from the melting curve of the protein in the absence of ligand as described by Pantoliano et al. (J. Biomolecular Screening, 6, 429, 2001) and Bowie & Sauer (Biochemistry, 28, 7139, 1989).
To compare dissociation constants at a common reference temperature, Tref, the following equation was used: [formula] where • Kd^ref=is the dissociation constant of the ligand at a reference temperature Tref • ΔHb^ref=is the binding enthalpy of the ligand to the protein at a reference temperature Tref. […]

The target in a further experiment is T2, ERR-α (Homo sapiens, UniProt P11474).
T2 construct: expressed in transfected cells; host or cells: HEK293E
T2 sequence (P11474 1-423): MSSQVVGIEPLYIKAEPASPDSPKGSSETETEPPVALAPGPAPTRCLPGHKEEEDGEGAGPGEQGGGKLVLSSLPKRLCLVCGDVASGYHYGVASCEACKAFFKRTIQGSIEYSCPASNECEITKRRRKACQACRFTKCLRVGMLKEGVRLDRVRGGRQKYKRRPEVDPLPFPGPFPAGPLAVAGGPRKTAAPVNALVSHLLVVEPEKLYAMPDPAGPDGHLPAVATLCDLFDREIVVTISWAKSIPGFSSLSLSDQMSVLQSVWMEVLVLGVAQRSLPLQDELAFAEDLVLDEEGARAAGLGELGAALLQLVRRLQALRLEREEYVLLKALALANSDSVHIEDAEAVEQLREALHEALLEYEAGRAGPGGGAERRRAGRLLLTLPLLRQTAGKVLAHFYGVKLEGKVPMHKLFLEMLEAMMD
In words: 2-Hybrid cell based luciferase reporter assay (pBIND-Gal4-ERR-α / pACT-SRC2) in HEK293E cells. As to conditions: 24 hours compound treatment, firefly luciferase normalized to Renilla, average from three independent experiments. Here is the method: A cell based reporter assay was also used to determine the functional response of the ERR-α hits. Transfections were performed in HEK293E cells that were maintained in DMEM supplemented in glutamine and 10% FBS. Co-transfections of 4 μg of a luciferase reporter plasmid and 4 μg of each pBIND-Gal4-ERR-α and pACT-SRC2 plasmids per T-75 flask were done using Lipofectamine as per manufacturers instructions. Twenty-four hours post-transfection, the cells were seeded in 96-well plates at density of 50,000 cells per well in assay media (DMEM phenol free, 5% charcoal stripped FBS). The cells were allowed to adhere to the bottom of the wells (approximately 5 hours post-seeding) and the compounds were dosed and the final concentration of DMSO was kept below 0.3%. After 24 hours of compound treatment cells were lysed and treated with the Promega Dual-Glo system. Firefly Luciferase activity was read using a luminescence plate reader, and data were normalized against Renilla luciferase activity. Data were fitted using subroutines available from GraphPad. The reported IC50 values shown in the table below are the average from three independent experiments for the compounds tested.

One may read the Kd as the free concentration of one partner at which half of the binding sites on the other are occupied at equilibrium, for simple one-to-one binding. The IC50 is the midpoint of a concentration-inhibition curve. Read a low IC50 as greater potency. Take `COc1cc(/C=C2\SC(N)=NC2=O)ccc1Oc1ccc(C#N)c(C(F)(F)F)c1` [Example 8, 4-[4-(2-Amino-4-oxo-4H-thiazol-5-ylidenemethyl)-2-methoxy-phenoxy]-2-trifluoromethyl-benzonitrile]: in experiment [1], the Kd was 473 nM. The compound further had an IC50 against ERR-α of 140 nM.

`COc1cc(/C=C2\SC(=O)NC2=O)ccc1Oc1ccc([N+](=O)[O-])c(C(F)(F)F)c1` [Example 11, 5-[3-Methoxy-4-(4-nitro-3-trifluoromethyl-phenoxy)-benzylidene]-thiazolidine-2,4-dione]: the Kd in experiment [1] is 529 nM. The compound also had an IC50 against ERR-α of 1000 nM.

Consider `COc1cc(/C=C2\SC(=O)NC2=O)ccc1Oc1ccc(C#N)c(C(F)(F)F)c1` [Example 12, 4-[4-(2,4-Dioxo-thiazolidin-5-ylidenemethyl)-2-methoxy-phenoxy]-2-trifluoromethyl-benzonitrile], for which the Kd in experiment [1] was 463 nM. The same compound yielded an IC50 at ERR-α of 50 nM.

As for `COC(=O)c1ccc(Oc2ccc(/C=C3\SC(=O)NC3=O)cc2OC)cc1C(F)(F)F` [Example 15, 4-[4-(2,4-Dioxo-thiazolidin-5-ylidenemethyl)-2-methoxy-phenoxy]-2-trifluoromethyl-benzoic acid methyl ester], the Kd in experiment [1] was 114 nM. On ERR-α, the IC50 worked out at 1500 nM.

The values above are taken from patent US20060014812A1, “Use of estrogen related receptor-modulating aryl ethers” (priority 2004, published 2006).
